Patent US7790196B2, “Extracellular vesicles from non-pathogenic amoebae useful as vehicle for transferring a molecule of interest to an eukaryotic cell” (Universite Pierre et Marie Curie- Paris VI, priority 2003, dated 2010)

Key:
Leukemic K562 cells = details: Asahi et al., 1995; cited from earlier work
Dd cells [1] = experiment: Cytotoxicity of the cargo molecule towards growing Dd cells (cell counting during growth); format: cell-based, Dictyostelium discoideum
Experimental: The growth curve of Dd cells, continuously maintained with HO342 (10 μg/ml) since the initiation of the culture at a density of 3×10^6 cells/ml is shown on FIG. 3a. Images of Dd cells, fixed in 70% MeOH at different times (from 72 h to 216 h), show the aspect of the cells and of their HO342 stained nuclei. Apoptosis might increase as a function of time along the stationary plateau (Tatischeff et al., 2001), and the characteristic much smaller size of apoptotic cells were predominant for the t′216 fixed Dd cells (FIG. 3a).
The capacity of Dd cells to internalise different exogenous molecules was studied. Further, their ability to release vesicles, in particular the “12,000” vesicles, carrying a broad-spectrum of molecules of interest was assessed. Flow cytometry and micro-spectrofluorimetry were used to measure respectively the cell internalisation and the vesicle-mediated release of the fluorescent cargo molecule as a function of incubation time in the growth medium. Growing Dd cells were incubated for different periods of time up to 72 h in the presence of the exogenous molecule. Fractions of the cells were fixed in 2% paraformaldehyde after each one of these increasing incubation times. Simultaneously, the externalised “12,000” vesicles were prepared from aliquots of the growth medium and concentrated (×20). […]

Dd cells [2] = experiment: Vesicle-mediated release of cargo molecule from Dd cells (micro-spectrofluorimetry of “12,000” vesicles); format: cell-based, Dictyostelium discoideum
Experimental: The capacity of Dd cells to internalise different exogenous molecules was studied. Further, their ability to release vesicles, in particular the “12,000” vesicles, carrying a broad-spectrum of molecules of interest was assessed. Flow cytometry and micro-spectrofluorimetry were used to measure respectively the cell internalisation and the vesicle-mediated release of the fluorescent cargo molecule as a function of incubation time in the growth medium. Growing Dd cells were incubated for different periods of time up to 72 h in the presence of the exogenous molecule. Fractions of the cells were fixed in 2% paraformaldehyde after each one of these increasing incubation times. Simultaneously, the externalised “12,000” vesicles were prepared from aliquots of the growth medium and concentrated (×20). As controls, Dd cells were grown in parallel without the cargo molecule and handled the same. Moreover, cell counting during growth allowed to check for any cytotoxicity of the studied molecule as a function of time. Cell and vesicle samples were kept at 4° C. until measurements.

## CCCCCC(=O)c1c(O)c(Cl)c(OC)c(Cl)c1O [DIF]
Leukemic K562 cells
  differentiation of K562 cells: differentiate and recover the capacity to synthesize haemoglobin

## CCOc1ccc(-c2nc3ccc(-c4nc5ccc(N6CCN(C)CC6)cc5[nH]4)cc3[nH]2)cc1 [HO342, Hoechst 33342]
Dd cells [1]; HO342 10 μg/ml, continuously since initiation of culture
  cytotoxicity during incubation with Dd cells in the growth medium: absence of cytotoxicity

## Cc1cc(O)c2c(=O)c3c(O)cc(O)c4c5c(O)cc(O)c6c(=O)c7c(O)cc(C)c8c1c2c(c34)c(c78)c65 [hypericin]
Dd cells [1]; hypericin 25 μM in growth medium
  toxicity towards Dd cells: without any apparent toxicity

## COc1cccc2c1C(=O)c1c(O)c3c(c(O)c1C2=O)C[C@@](O)(C(=O)CO)C[C@@H]3O[C@H]1C[C@H](N)[C@H](O)[C@H](C)O1 [Doxorubicine]
Dd cells [2]
  release of the molecule into vesicles: also released into “12,000” vesicles
